# Laboratory results reported in paper PMC11201660 (Biomolecules, 2024).
# What was measured:
# [1] = target: human BChE (Homo sapiens, UniProt P06276); experiment: biochemical; assay type: biochemical
# [2] = MTS cytotoxicity assay, 24-h exposure of liver cell line; conditions: human, HepG2 cells, IC50 HepG2 (cytotoxicity), tested 3 to 400 μM
# [3] = target: T1, human AChE (Homo sapiens, UniProt P22303); experiment: biochemical; assay type: biochemical
# T1 construct: gift from Dr. Zoran Radić, Skaggs School of Pharmacy and Pharmaceutical Sciences, UCSD
# [4] = tested on: HepG2; experiment: MTS cytotoxicity assay, 24-h exposure of liver cell line; conditions: read-out: IC50 HepG2 (cytotoxicity), tested 3 to 400 μM
# T1 sequence (P22303 32-614): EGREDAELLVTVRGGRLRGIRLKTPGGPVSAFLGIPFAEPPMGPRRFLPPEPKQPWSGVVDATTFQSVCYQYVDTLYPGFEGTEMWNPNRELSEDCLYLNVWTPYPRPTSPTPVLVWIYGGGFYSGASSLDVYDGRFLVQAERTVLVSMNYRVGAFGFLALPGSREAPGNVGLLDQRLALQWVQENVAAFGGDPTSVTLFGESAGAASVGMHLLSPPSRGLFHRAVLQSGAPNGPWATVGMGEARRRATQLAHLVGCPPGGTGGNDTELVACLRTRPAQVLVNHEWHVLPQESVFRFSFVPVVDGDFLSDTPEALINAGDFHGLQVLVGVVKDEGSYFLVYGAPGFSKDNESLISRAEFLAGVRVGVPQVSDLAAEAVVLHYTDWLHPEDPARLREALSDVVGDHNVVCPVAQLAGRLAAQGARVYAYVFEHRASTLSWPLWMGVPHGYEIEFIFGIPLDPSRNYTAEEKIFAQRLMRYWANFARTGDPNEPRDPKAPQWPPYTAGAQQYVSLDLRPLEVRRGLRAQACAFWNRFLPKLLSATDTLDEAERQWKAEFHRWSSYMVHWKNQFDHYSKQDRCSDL
# Chain of human BChE (P06276 29-602): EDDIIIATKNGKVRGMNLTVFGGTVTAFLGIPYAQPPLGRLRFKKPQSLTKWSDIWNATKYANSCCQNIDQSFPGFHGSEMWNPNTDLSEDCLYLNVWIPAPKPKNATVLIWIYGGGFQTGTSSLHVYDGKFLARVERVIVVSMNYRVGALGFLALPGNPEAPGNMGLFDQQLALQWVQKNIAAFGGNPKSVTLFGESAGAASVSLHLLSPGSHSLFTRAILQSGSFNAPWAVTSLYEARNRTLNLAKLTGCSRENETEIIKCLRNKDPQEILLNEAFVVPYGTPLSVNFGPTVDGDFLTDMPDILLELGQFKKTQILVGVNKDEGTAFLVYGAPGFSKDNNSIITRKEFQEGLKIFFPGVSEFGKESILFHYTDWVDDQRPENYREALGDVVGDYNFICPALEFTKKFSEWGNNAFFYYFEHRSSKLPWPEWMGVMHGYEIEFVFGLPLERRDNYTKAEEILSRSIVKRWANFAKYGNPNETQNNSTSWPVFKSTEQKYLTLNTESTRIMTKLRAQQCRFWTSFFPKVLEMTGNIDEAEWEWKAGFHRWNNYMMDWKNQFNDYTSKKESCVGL
Structure (SMILES),Ki [1],IC50 at 24 h [2],Ki [3],IC50 [4],inhibition of human AChE (in words) [3],inhibition of human BChE (in words) [1],inhibition selectivity (AChE vs BChE) [1]
"Cc1ccc(/C=C\c2ccsc2/C=N\O)cc1 [cis,anti-18, (Z)-3-((Z)-4-methylstyryl)thiophene-2-carbaldehyde oxime]",760 ± 122 µM,> 400 µM,–,–,–,–,–
"N#Cc1ccc(/C=C\c2ccsc2/C=N\O)cc1 [cis,anti-21, 4-((Z)-2-(2-((Z)-(hydroxyimino)methyl)thiophen-3-yl)vinyl)benzonitrile]",53 ± 10 µM,182 ± 13 µM,187 ± 54 µM,–,–,–,–
"N#Cc1ccccc1/C=C\c1ccc(/C=N/O)s1 [cis,syn-5, 2-((Z)-2-(5-((E)-(hydroxyimino)methyl)thiophen-2-yl)vinyl)benzonitrile]",17 ± 2 µM,≥ 400 µM,112 ± 21 µM,–,–,–,–
"O/N=C/c1ccc(/C=C\c2ccc(Cl)cc2)o1 [cis,syn-12, (E)-5-((Z)-4-chlorostyryl)furan-2-carbaldehyde oxime]",147 ± 37 µM,226 ± 10 µM,68 ± 37 µM,–,–,–,–
"Cc1ccc(/C=C\c2ccoc2/C=N/O)cc1 [cis,syn-14, (E)-3-((Z)-4-methylstyryl)furan-2-carbaldehyde oxime]",93 ± 30 µM,182 ± 32 µM,627 ± 245 µM,–,–,–,–
"O/N=C/c1occc1/C=C\c1ccc(Cl)cc1 [cis,syn-16, (E)-3-((Z)-4-chlorostyryl)furan-2-carbaldehyde oxime]",119 ± 44 µM,≤ 100 µM,–,65 ± 13 µM,–,–,–
"N#Cc1ccc(/C=C\c2ccoc2/C=N/O)cc1 [cis,syn-17, 4-((Z)-2-(2-((E)-(hydroxyimino)methyl)furan-3-yl)vinyl)benzonitrile]",–,≤ 100 µM,544 ± 105 µM,120 ± 6 µM,–,–,–
"Cc1ccc(/C=C\c2ccsc2/C=N/O)cc1 [cis,syn-18, (E)-3-((Z)-4-methylstyryl)thiophene-2-carbaldehyde oxime]",86 ± 32 µM,269 ± 38 µM,–,–,–,–,–
"COc1ccc(/C=C\c2csc(/C=N/O)c2)cc1 [cis,syn-19′, (E)-4-((Z)-4-methoxystyryl)thiophene-2-carbaldehyde oxime]",–,> 400 µM,–,–,poor inhibitors,poor inhibitors,–
"N#Cc1ccc(/C=C\c2ccsc2/C=N/O)cc1 [cis,syn-21, 4-((Z)-2-(2-((E)-(hydroxyimino)methyl)thiophen-3-yl)vinyl)benzonitrile]",59 ± 8 µM,≤ 100 µM,171 ± 68 µM,118 ± 46 µM,–,–,–
"ON=Cc1cn(Cc2ccc(F)cc2)nn1 [compound 1, 1-(4-fluorobenzyl)-1H-1,2,3-triazole-4-carbaldehyde oxime]",503 ± 32 µM,> 400 µM,271 ± 29 µM,–,–,–,–
"ON=Cc1cn(Cc2ccc(Cl)cc2)nn1 [compound 2, 1-(4-chlorobenzyl)-1H-1,2,3-triazole-4-carbaldehyde oxime]",24 ± 2.9 µM,> 400 µM,267 ± 92 µM,–,–,–,selective BChE inhibitors
"O=[N+]([O-])c1ccc(-n2cc(C=NO)nn2)cc1 [compound 3, 1-(4-nitrophenyl)-1H-1,2,3-triazole-4-carbaldehyde oxime]",303 ± 66 µM,> 400 µM,280 ± 30 µM,–,–,–,–
"O/N=C\c1ccc(/C=C/c2ccccc2O)s1 [trans,anti-4, (Z)-5-((E)-2-hydroxystyryl)thiophene-2-carbaldehyde oxime]",6.5 ± 0.5 µM,191 ± 21 µM,258 ± 90 µM,–,–,–,–
"O/N=C\c1ccc(/C=C/c2ccco2)o1 [trans,anti-6, (Z)-5-((E)-2-(furan-2-yl)vinyl)furan-2-carbaldehyde oxime]",123 ± 23 µM,≥ 400 µM,–,–,–,–,–
"Cc1ccc(/C=C/c2ccc(/C=N\O)o2)cc1 [trans,anti-10, (Z)-5-((E)-4-methylstyryl)furan-2-carbaldehyde oxime]",–,> 400 µM,180 ± 40 µM,–,–,–,–
"COc1ccc(/C=C/c2ccoc2/C=N\O)cc1 [trans,anti-15, (Z)-3-((E)-4-methoxystyryl)furan-2-carbaldehyde oxime]",–,> 400 µM,–,–,poor inhibitors,poor inhibitors,–
"Cc1ccccc1/C=C/c1oc2ccc3ccccc3c2c1/C=N/O [trans,syn-9, (E)-2-((E)-2-methylstyryl)naphtho[2,1-b]furan-1-carbaldehyde oxime]",303 ± 65 µM,> 400 µM,172 ± 29 µM,–,–,–,–
"Cc1ccc(/C=C/c2ccc(/C=N/O)o2)cc1 [trans,syn-10, (E)-5-((E)-4-methylstyryl)furan-2-carbaldehyde oxime]",38 ± 9.8 µM,≤ 100 µM,111 ± 45 µM,105 ± 4 µM,–,–,–
"Cc1ccc(/C=C/c2ccoc2/C=N/O)cc1 [trans,syn-14, (E)-3-((E)-4-methylstyryl)furan-2-carbaldehyde oxime]",122 ± 47 µM,> 400 µM,–,–,–,–,–
"O/N=C/c1occc1/C=C/c1ccc(Cl)cc1 [trans,syn-16, (E)-3-((E)-4-chlorostyryl)furan-2-carbaldehyde oxime]",–,> 400 µM,217 ± 160 µM,–,–,–,–
"N#Cc1ccc(/C=C/c2ccoc2/C=N/O)cc1 [trans,syn-17, 4-((E)-2-(2-((E)-(hydroxyimino)methyl)furan-3-yl)vinyl)benzonitrile]",–,> 400 µM,66 ± 24 µM,–,–,–,selective AChE inhibitors
"Cc1ccc(/C=C/c2ccsc2/C=N/O)cc1 [trans,syn-18, (E)-3-((E)-4-methylstyryl)thiophene-2-carbaldehyde oxime]",–,> 400 µM,59 ± 39 µM,–,–,–,selective AChE inhibitors
CCCn1cc(C=Cc2ccc(C=NO)s2)nn1 [trans-7],49 ± 11 µM,> 400 µM,147 ± 43 µM,–,–,–,–
"O=[N+]([O-])c1ccc(-n2cc(C=Cc3ccc(C=NO)s3)nn2)cc1 [trans-8, 5-(2-(1-(4-nitrophenyl)-1H-1,2,3-triazol-4-yl)vinyl)thiophene-2-carbaldehyde oxime]",143 ± 22 µM,> 400 µM,199 ± 38 µM,–,–,–,–
